Read-outs that look alike come from different tables or passages of the source.
Assays:
Assay in all cases: fluorogenic AMC peptide hydrolysis
Format in all cases: biochemical
[1] = tested on: T1, 20S proteasome β5 subunit, chymotrypsin-like (ChT-L) activity; conditions: Suc-LLVY-AMC, 37 °C, 30 min, enzyme pretreated with compound
T1 construct: gene PSMB5; native 20S proteasome purified from lymphoblastoid cells

[2] = tested on: T1, 20S proteasome β5 subunit, chymotrypsin-like (ChT-L) activity; conditions: Suc-LLVY-AMC, 37 °C, 30 min, enzyme pretreated with compound; read-out: IC50 (μm)^aChT-L
Excerpt: fluorogenic AMC peptide hydrolysis on 20S proteasome β5 subunit, chymotrypsin-like (ChT-L) activity

[3] = tested on: T2, 20S proteasome β2 subunit, trypsin-like (T-L) activity; conditions: Boc-LRR-AMC, 37 °C, 30 min, enzyme pretreated with compound
T2 construct: gene PSMB7; native 20S proteasome purified from lymphoblastoid cells
Excerpt: fluorogenic AMC peptide hydrolysis on 20S proteasome β2 subunit, trypsin-like (T-L) activity

Molecule	IC50 [1] [µM]	IC50 [2] [µM]	IC50 [3] [µM]
CC(C)C[C@H](NC(=O)c1ccc([N+](=O)[O-])cc1)C(=O)NCCNC1=C(Cl)C(=O)c2ccccc2C1=O [compound 2, NBz-Leu-NH-(CH2)2-NH-ClNafQ]	–	> 100	65.3 ± 5.91
CC(C)C[C@H](NC(=O)c1ccccc1)C(=O)NCCNC1=C(Cl)C(=O)c2ccccc2C1=O [compound 3, Bz-Leu-NH-(CH2)2-NH-ClNafQ]	–	> 100	58.4 ± 5.13
NC(=O)C[C@H](NC(=O)c1ccccc1)C(=O)NCCNC1=C(Cl)C(=O)c2ccccc2C1=O [compound 7, Bz-Asn-NH-(CH2)2-NH-ClNafQ]	–	7.99 ± 0.67	49.7 ± 3.87
NC(=O)C[C@H](NC(=O)c1cccc2ccccc12)C(=O)NCCNC1=C(Cl)C(=O)c2ccccc2C1=O [compound 8, 1-NaftCO-Asn-NH-(CH2)2-NH-ClNafQ]	–	76.2 ± 6.82	35.2 ± 2.77
Cc1c(O)cccc1C(=O)N[C@@H](Cc1ccccc1)C(=O)NCCNC1=C(Cl)C(=O)c2ccccc2C1=O [compound 9, HMB-Phe-NH-(CH2)2-NH-ClNafQ]	–	0.85 ± 0.07	> 100
O=C(N[C@@H](Cc1ccccc1)C(=O)NCCNC1=C(Cl)C(=O)c2ccccc2C1=O)c1ccc([N+](=O)[O-])cc1 [compound 10, NBz-Phe-NH-(CH2)2-NH-ClNafQ]	–	0.77 ± 0.06	35.4 ± 2.91
O=C(N[C@@H](Cc1ccccc1)C(=O)NCCNC1=C(Cl)C(=O)c2ccccc2C1=O)c1ccccc1 [compound 11, Bz-Phe-NH-(CH2)2-NH-ClNafQ]	–	6.22 ± 0.48	53.2 ± 6.7
O=C1C(Cl)=C(NCCNC(=O)[C@H](Cc2ccccc2)NC(=O)c2cccc3ccccc23)C(=O)c2ccccc21 [compound 12, 1-NaftCO-Phe-NH-(CH2)2-NH-ClNafQ]	–	9.14 ± 1.02	49.8 ± 3.97
Cc1c(O)cccc1C(=O)N[C@@H](CO)C(=O)NCCNC1=C(Cl)C(=O)c2ccccc2C1=O [compound 13, HMB-Ser-NH-(CH2)2-NH-ClNafQ]	> 100	–	> 100
O=C(NC(CO)C(=O)NCCNC1=C(Cl)C(=O)c2ccccc2C1=O)c1ccc([N+](=O)[O-])cc1 (stereo not drawn) [compound 14, NBz-Ser-NH-(CH2)2-NH-ClNafQ]	–	83.5 ± 8.03	63.4 ± 7.01
O=C(N[C@@H](CO)C(=O)NCCNC1=C(Cl)C(=O)c2ccccc2C1=O)c1ccccc1 [compound 15, Bz-Ser-NH-(CH2)2-NH-ClNafQ]	–	24.1 ± 1.98	53.8 ± 4.88
O=C1C(Cl)=C(NCCNC(=O)[C@H](CO)NC(=O)c2cccc3ccccc23)C(=O)c2ccccc21 [compound 16, 1-NaftCO-Ser-NH-(CH2)2-NH-ClNafQ]	> 100	–	> 100
CC(C)C[C@H](NC(=O)c1ccccc1)C(=O)NCCCCNC1=C(Cl)C(=O)c2ccccc2C1=O [compound 19, Bz-Leu-NH-(CH2)4-NH-ClNafQ]	–	10.1 ± 0.7	–
Cc1c(O)cccc1C(=O)N[C@@H](CC(N)=O)C(=O)NCCCCNC1=C(Cl)C(=O)c2ccccc2C1=O [compound 21, HMB-Asn-NH-(CH2)4-NH-ClNafQ]	–	65.4 ± 6.5	–
NC(=O)CC(NC(=O)c1ccc([N+](=O)[O-])cc1)C(=O)NCCCCNC1=C(Cl)C(=O)c2ccccc2C1=O (stereo not drawn) [compound 22, NBz-Asn-NH-(CH2)4-NH-ClNafQ]	–	28.5 ± 3.05	–
NC(=O)C[C@H](NC(=O)c1cccc2ccccc12)C(=O)NCCCCNC1=C(Cl)C(=O)c2ccccc2C1=O [compound 24, 1-NaftCO-Asn-NH-(CH2)4-NH-ClNafQ]	–	78.3 ± 6.95	–

Molecule	IC50 [1] [µM]	IC50 [2] [µM]	IC50 [3] [µM]
Cc1c(O)cccc1C(=O)N[C@@H](Cc1ccccc1)C(=O)NCCCCNC1=C(Cl)C(=O)c2ccccc2C1=O [compound 25, HMB-Phe-NH-(CH2)4-NH-ClNafQ]	–	17.5 ± 1.07	–
O=C(NC(Cc1ccccc1)C(=O)NCCCCNC1=C(Cl)C(=O)c2ccccc2C1=O)c1ccc([N+](=O)[O-])cc1 (stereo not drawn) [compound 26, NBz-Phe-NH-(CH2)4-NH-ClNafQ]	–	9.1 ± 0.6	–
O=C(N[C@@H](Cc1ccccc1)C(=O)NCCCCNC1=C(Cl)C(=O)c2ccccc2C1=O)c1ccccc1 [compound 27, Bz-Phe-NH-(CH2)4-NH-ClNafQ]	–	10.1 ± 0.7	–
O=C1C(Cl)=C(NCCCCNC(=O)[C@H](Cc2ccccc2)NC(=O)c2cccc3ccccc23)C(=O)c2ccccc21 [compound 28, 1-NaftCO-Phe-NH-(CH2)4-NH-ClNafQ]	–	9.3 ± 1.02	79.7 ± 6.97
Cc1c(O)cccc1C(=O)N[C@@H](CO)C(=O)NCCCCNC1=C(Cl)C(=O)c2ccccc2C1=O [compound 29, HMB-Ser-NH-(CH2)4-NH-ClNafQ]	–	45.7 ± 2.59	80.2 ± 6.91
O=C(NC(CO)C(=O)NCCCCNC1=C(Cl)C(=O)c2ccccc2C1=O)c1ccc([N+](=O)[O-])cc1 (stereo not drawn) [compound 30, NBz-Ser-NH-(CH2)4-NH-ClNafQ]	–	88.7 ± 8.03	83.3 ± 7.21
O=C1C(Cl)=C(NCCCCNC(=O)[C@H](CO)NC(=O)c2cccc3ccccc23)C(=O)c2ccccc21 [compound 32, 1-NaftCO-Ser-NH-(CH2)4-NH-ClNafQ]	–	> 100	60.8 ± 4.88
Bz-Asn-NH-cHx-NH-ClNafQ [compound 39]	> 100	–	–
Bz-Phe-NH-cHx-NH-ClNafQ [compound 43]	–	73.3 ± 3.9	–
HMB-Leu-NH-cHx-NH-ClNafQ [compound 33]	> 100	–	–
HMB-Phe-NH-cHx-NH-ClNafQ [compound 41]	> 100	–	–
HMB-Ser-NH-cHx-NH-ClNafQ [compound 45]	> 100	–	–
NBz-Asn-NH-cHx-NH-ClNafQ [compound 38]	> 100	–	–
NBz-Leu-NH-(CH2)4-NH-ClNafQ [compound 18]	–	8.4 ± 0.72	–
NBz-Phe-NH-cHx-NH-ClNafQ [compound 42]	–	82.1 ± 6.52	–
NBz-Ser-NH-cHx-NH-ClNafQ [compound 46]	> 100	–	–

Second part, the molecule after the results:

IC50 [1] [µM]	IC50 [2] [µM]	IC50 [3] [µM]	Molecule
> 100	–	–	1-NaftCO-Asn-NH-cHx-NH-ClNafQ [compound 40]
–	59.3 ± 6.42	–	1-NaftCO-Leu-NH-cHx-NH-ClNafQ [compound 36]
> 100	–	–	1-NaftCO-Phe-NH-cHx-NH-ClNafQ [compound 44]
> 100	–	–	1-NaftCO-Ser-NH-cHx-NH-ClNafQ [compound 48]
–	> 100	77.4 ± 6.51	Cc1c(O)cccc1C(=O)N[C@@H](CC(C)C)C(=O)NCCNC1=C(Cl)C(=O)c2ccccc2C1=O [compound 1, HMB-Leu-NH-(CH2)2-NH-ClNafQ]
–	0.82 ± 0.08	21.1 ± 1.85	CC(C)C[C@H](NC(=O)c1cccc2ccccc12)C(=O)NCCNC1=C(Cl)C(=O)c2ccccc2C1=O [compound 4, 1-NaftCO-Leu-NH-(CH2)2-NH-ClNafQ]
–	8.47 ± 0.75	68.4 ± 5.14	Cc1c(O)cccc1C(=O)N[C@@H](CC(N)=O)C(=O)NCCNC1=C(Cl)C(=O)c2ccccc2C1=O [compound 5, HMB-Asn-NH-(CH2)2-NH-ClNafQ]
–	0.92 ± 0.09	17.2 ± 1.09	NC(=O)C[C@H](NC(=O)c1ccc([N+](=O)[O-])cc1)C(=O)NCCNC1=C(Cl)C(=O)c2ccccc2C1=O [compound 6, NBz-Asn-NH-(CH2)2-NH-ClNafQ]
–	11.5 ± 1.02	> 100	Cc1c(O)cccc1C(=O)N[C@@H](CC(C)C)C(=O)NCCCCNC1=C(Cl)C(=O)c2ccccc2C1=O [compound 17, HMB-Leu-NH-(CH2)4-NH-ClNafQ]
–	49.3 ± 5.02	–	CC(C)C[C@H](NC(=O)c1cccc2ccccc12)C(=O)NCCCCNC1=C(Cl)C(=O)c2ccccc2C1=O [compound 20, 1-NaftCO-Leu-NH-(CH2)4-NH-ClNafQ]
–	24.2 ± 2.05	–	NC(=O)C[C@H](NC(=O)c1ccccc1)C(=O)NCCCCNC1=C(Cl)C(=O)c2ccccc2C1=O [compound 23, Bz-Asn-NH-(CH2)4-NH-ClNafQ]
–	84.1 ± 6.08	–	O=C(N[C@@H](CO)C(=O)NCCCCNC1=C(Cl)C(=O)c2ccccc2C1=O)c1ccccc1 [compound 31, Bz-Ser-NH-(CH2)4-NH-ClNafQ]
–	23.1 ± 1.7	–	Bz-Leu-NH-cHx-NH-ClNafQ [compound 35]
> 100	–	–	Bz-Ser-NH-cHx-NH-ClNafQ [compound 47]
> 100	–	–	HMB-Asn-NH-cHx-NH-ClNafQ [compound 37]
–	42.1 ± 5.02	–	NBz-Leu-NH-cHx-NH-ClNafQ [compound 34]
